Experimental data published in patent US10336762B2 (priority 2017, dated 2019).
Like-named read-outs stand apart in the source and are kept apart here.

Experiments:
TNFα = experiment: cells; assay type: cell-based, human; settings: Homo sapiens, Monocyte, LPS-stimulated human monocytes, read-out: EC50 TNF
IRAK4 enzyme = IRAK4 enzyme (Homo sapiens (Human), UniProt Q9NWZ3); experiment: biochemical; assay type: biochemical; settings: IRAK4 enzyme, 500 μM ATP
IRAK4 enzyme, sequence (Q9NWZ3 whole entry): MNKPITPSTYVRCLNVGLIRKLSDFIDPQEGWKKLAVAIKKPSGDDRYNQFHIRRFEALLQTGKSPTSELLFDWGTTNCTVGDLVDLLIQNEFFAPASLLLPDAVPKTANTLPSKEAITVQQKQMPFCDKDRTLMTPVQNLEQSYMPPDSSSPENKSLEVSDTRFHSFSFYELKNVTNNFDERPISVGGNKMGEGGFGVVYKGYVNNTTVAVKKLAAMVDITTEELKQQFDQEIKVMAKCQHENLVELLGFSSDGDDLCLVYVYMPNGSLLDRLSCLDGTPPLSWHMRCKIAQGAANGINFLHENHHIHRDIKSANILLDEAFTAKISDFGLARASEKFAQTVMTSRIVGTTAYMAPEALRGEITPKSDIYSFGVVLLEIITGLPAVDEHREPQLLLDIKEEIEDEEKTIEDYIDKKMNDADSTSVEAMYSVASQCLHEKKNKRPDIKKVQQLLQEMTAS

Row | SMILES | EC50 (TNFα; TNFα content) | IC50 (IRAK4 enzyme; TR-FRET (HTRF)) | IC50 (IRAK4 enzyme; TR-FRET) | EC50 (TNFα; TNFα by TR-FRET)
1 | CC(C)(O)[C@H](F)CNC(=O)c1cnc(-c2ccc3cc(C#N)cnn23)cc1Nc1cnc(N2CC3(CCOCC3)C2)nc1 [Example 689, (R)-4-((2-(7-oxa-2-azaspiro[3.5]nonan-2-yl)pyrimidin-5-yl)amino)-6-(3-cyanopyrrolo[1,2-b]pyridazin-7-yl)-N-(2-fluoro-3-hydroxy-3-methylbutyl)nicotinamide] | 180 nM | 1 nM |  | 
2 | Cn1cnc2cc(Nc3cc(-c4ccc5cc(C#N)cnn45)ncc3C(=O)NC[C@@H](F)C(C)(C)O)cnc21 [Example 782, (R)-6-(3-cyanopyrrolo[1,2-b]pyridazin-7-yl)-N-(2-fluoro-3-hydroxy-3-methylbutyl)-4-((3-methyl-3H-imidazo[4,5-b]pyridin-6-yl)amino)nicotinamide] | 29 nM | < 1 nM |  | 
3 | COC(=O)NC12CC(Nc3cc(-c4ccc5cc(C#N)cnn45)ncc3C(=O)NCC#N)(C1)C2 [Example 487, methyl (3-((5-((cyanomethyl)carbamoyl)-2-(3-cyanopyrrolo[1,2-b]pyridazin-7-yl)pyridin-4-yl)amino)bicyclo[1.1.1]pentan-1-yl)carbamate] | 51 nM | < 1 nM |  | 
4 | CC(C)(O)[C@H](F)CNC(=O)c1cnc(-c2ccc3cc(C#N)cnn23)cc1NCCCS(C)(=O)=O [Example 103, (R)-6-(3-cyanopyrrolo[1,2-b]pyridazin-7-yl)-N-(2-fluoro-3-hydroxy-3-methylbutyl)-4-((3-(methylsulfonyl)propyl)amino)nicotinamide] | 75 nM |  | < 1 nM | 
5 | CC(C)(O)[C@H](F)CNC(=O)c1cnc(-c2ccc3cc(C#N)cnn23)cc1Nc1ccc2c(c1)CC(=O)N2 [Example 650, (R)-6-(3-cyanopyrrolo[1,2-b]pyridazin-7-yl)-N-(2-fluoro-3-hydroxy-3-methylbutyl)-4-((2-oxo-indolin-5-yl)amino) nicotinamide] | 16 nM | < 1 nM |  | 
6 | CC(C)(O)[C@H](F)CNC(=O)c1cnc(-c2ccc3cc(C#N)cnn23)cc1Nc1nc(Cc2ccccc2)cs1 [Example 337, (R)-4-((4-benzylthiazol-2-yl)amino)-6-(3-cyanopyrrolo[1,2-b]pyridazin-7-yl)-N-(2-fluoro-3-hydroxy-3-methylbutyl)nicotinamide] | 73 nM |  | 5 nM | 
7 | CN1CCOc2cc(Nc3cc(-c4ccc5cc(C#N)cnn45)ncc3C(=O)N[C@H]3CC[C@H](NC(=O)N4CCOCC4)CC3)ccc21 [Example 860, N-((1r,4r)-4-(6-(3-cyano-pyrrolo[1,2-b]pyridazin-7-yl)-4-((4-methyl-3,4-dihydro-2H-benzo[b][1,4]oxazin-7-yl)amino)nicotin-amido)cyclohexyl) morpholine-4-carboxamide] |  |  | 2 nM | 31 nM
8 | CNC(=O)c1cnc(-c2ccc3cc(C#N)cnn23)cc1NC12CCC(C(=O)NC3CC3)(CC1)CC2 [Example 481, 6-(3-cyanopyrrolo[1,2-b]pyridazin-7-yl)-4-((4-(cyclopropylcarbamoyl)bicyclo[2.2.2]octan-1-yl)amino)-N-methylnicotinamide] | 63 nM | 2 nM |  | 
9 | CC(C)Nc1cc(-c2ccc3cc(C#N)cnn23)ncc1C(=O)N[C@@H]1CCOC[C@H]1F [Example 323, 6-(3-cyanopyrrolo[1,2-b]pyridazin-7-yl)-N-((3S,4R)-3-fluoro-tetrahydro-2H-pyran-4-yl)-4-(isopropylamino) nicotinamide] | 187 nM |  | 5 nM | 
10 | CC(C)(O)[C@H](F)CNC(=O)c1cnc(-c2ccc3cc(C#N)cnn23)cc1NCCc1ccc(F)cc1 [Example 707, (R)-6-(3-cyanopyrrolo[1,2-b]pyridazin-7-yl)-N-(2-fluoro-3-hydroxy-3-methylbutyl)-4-((4-fluorophenethyl)amino) nicotinamide] | 42 nM | 1 nM |  | 
11 | N#Cc1cnn2c(-c3cc(N[C@H]4CCC[C@@H](O)C4)c(C(=O)N[C@H]4CC[C@H](NC(=O)C5CC5)CC4)cn3)ccc2c1 [Example 527, 6-(3-cyanopyrrolo[1,2-b]pyridazin-7-yl)-N-((1r,4S)-4-(cyclopropane-carboxamido)cyclohexyl)-4-(((1S,3R)-3-hydroxycyclo-hexyl)amino)nicotinamide] | 16 nM | < 1 nM |  | 
12 | CC(=O)N1CCC(Nc2cc(-c3ccc4cc(C#N)cnn34)ncc2C(=O)NC[C@@H](F)C(C)(C)O)CC1 [Example 16, (R)-4-((1-acetylpiperidin-4-yl)amino)-6-(3-cyanopyrrolo[1,2-b]pyridazin-7-yl)-N-(2-fluoro-3-hydroxy-3-methylbutyl)nicotinamide] | 204 nM |  | 2 nM | 
13 | CC(C)(O)[C@H](F)CNC(=O)c1cnc(-c2ccc3cc(C#N)cnn23)cc1N[C@H]1C[C@H](CN)C1 [Example 692, 4-(((1r,3R)-3-(amino-methyl)cyclobutyl)amino)-6-(3-cyanopyrrolo[1,2-b]pyridazin-7-yl)-N-((R)-2-fluoro-3-hydroxy-3-methylbutyl)nicotinamide] | 315 nM | 1 nM |  | 
14 | N#Cc1cnn2c(-c3cc(NC45CCC(O)(CC4)CC5)c(C(=O)NCC(=O)N4CC5(COC5)C4)cn3)ccc2c1 [Example 800, 6-(3-cyanopyrrolo[1,2-b]pyridazin-7-yl)-4-((4-hydroxybicyclo[2.2.2]octan-1-yl)amino)-N-(2-oxo-2-(2-oxa-6-azaspiro[3.3]heptan-6-yl)ethyl)nicotinamide] |  |  | 3 nM | 133 nM
15 | CC(C)(O)[C@H](F)CNC(=O)c1cnc(-c2ccc3cc(C#N)cnn23)cc1Nc1cnn(-c2ccncc2)c1 [Example 761, (R)-6-(3-cyanopyrrolo[1,2-b]pyridazin-7-yl)-N-(2-fluoro-3-hydroxy-3-methylbutyl)-4-((1-(pyridin-4-yl)-1H-pyrazol-4-yl)amino) nicotinamide] | 26 nM | < 1 nM |  | 
16 | CC(C)(O)[C@H](F)CNC(=O)c1cnc(-c2ccc3cc(C#N)cnn23)cc1Nc1cnn(-c2ccccn2)c1 [Example 755, (R)-6-(3-cyanopyrrolo[1,2-b]pyridazin-7-yl)-N-(2-fluoro-3-hydroxy-3-methylbutyl)-4-((1-(pyridin-2-yl)-1H-pyrazol-4-yl)amino)nicotinamide] | 16 nM | 1 nM |  | 
17 | CC(C)(O)[C@H](F)CNC(=O)c1cnc(-c2ccc3cc(C#N)cnn23)cc1N[C@H]1C[C@H](CNC2COC2)C1 [Example 702, 6-(3-cyanopyrrolo[1,2-b]pyridazin-7-yl)-N—((R)-2-fluoro-3-hydroxy-3-methylbutyl)-4-(((1r,3R)-3-((oxetan-3-ylamino)methyl)cyclobutyl)amino)nicotinamide] | 119 nM | < 1 nM |  | 
18 | CC(C)(O)c1coc(CNC(=O)c2cnc(-c3ccc4cc(C#N)cnn34)cc2NC23CCC(O)(CC2)CC3)n1 [Example 622, 6-(3-cyanopyrrolo[1,2-b]pyridazin-7-yl)-4-((4-hydroxybicyclo[2.2.2]octan-1-yl)amino)-N-((4-(2-hydroxypropan-2-yl)oxazol-2-yl)methyl)nicotinamide] | 407 nM | 2 nM |  | 
19 | CC1(C(=O)N[C@H]2CC[C@H](Nc3cc(-c4ccc5cc(C#N)cnn45)ncc3C(=O)NC[C@@H](F)C(C)(C)O)CC2)CC1 [Example 423, 6-(3-cyanopyrrolo[1,2-b]pyridazin-7-yl)-N-((R)-2-fluoro-3-hydroxy-3-methyl-butyl)-4-(((1r,4R)-4-(1-methylcyclopropane-1-carboxamido)cyclohexyl)amino)nicotinamide] | 94 nM | 2 nM |  | 
20 | CC(C)(O)[C@H](F)CNC(=O)c1cnc(-c2ccc3cc(C#N)cnn23)cc1NCC1CN(CC(F)(F)F)C1 [Example 907, (R)-6-(3-cyanopyrrolo[1,2-b]pyridazin-7-yl)-N-(2-fluoro-3-hydroxy-3-methylbutyl)-4-(((1-(2,2,2-trifluoroethyl)azetidin-3-yl)methyl)amino) nicotinamide] |  |  | 10 nM | 91 nM
21 | CNC(=O)c1cnc(-c2ccc3cc(C#N)cnn23)cc1N[C@H]1C[C@@H](C(=O)NC)C1 [Example 471, 6-(3-cyanopyrrolo[1,2-b]pyridazin-7-yl)-N-methyl-4-(((1s,3s)-3-(methylcarbamoyl)cyclobutyl)amino) nicotinamide] | 74 nM | 9 nM |  | 
22 | CC(C)Nc1cc(-c2ccc3cc(C#N)cnn23)ncc1C(=O)NCC(=O)OC(C)(C)C [Example 812, tert-butyl (6-(3-cyano-pyrrolo[1,2-b]pyridazin-7-yl)-4-(isopropylamino)nicotinoyl)glycinate] |  |  | < 1 nM | 38 nM
23 | COC(=O)C1(NC(=O)c2cnc(-c3ccc4cc(C#N)cnn34)cc2NC23CCC(O)(CC2)CC3)CC1 [Example 949, methyl 1-(6-(3-cyano-pyrrolo[1,2-b]pyridazin-7-yl)-4-((4-hydroxy-bicyclo[2.2.2]octan-1-yl)amino)nicotinamido) cyclopropane-1-carboxylate] |  |  | 1 nM | 62 nM
24 | COC(=O)NC[C@H]1C[C@H](Nc2cc(-c3ccc4cc(C#N)cnn34)ncc2C(=O)NCC#N)C1 [Example 613, methyl (((1r,3r)-3-((5-((cyanomethyl)carbamoyl)-2-(3-cyanopyrrolo[1,2-b]pyridazin-7-yl)pyridin-4-yl)amino)cyclobutyl)methyl)carbamate] | 15 nM | < 1 nM |  | 
25 | CC(C)(O)[C@H](F)CNC(=O)c1cnc(-c2ccc3cc(C#N)cnn23)cc1N[C@H]1C[C@H](CNC(=O)C(F)(F)F)C1 [Example 542, 6-(3-cyanopyrrolo[1,2-b]pyridazin-7-yl)-N—((R)-2-fluoro-3-hydroxy-3-methylbutyl)-4-(((1r,3R)-3-((2,2,2-trifluoroacetamido)methyl)cyclobutyl)amino)nicotinamide] | 27 nM | < 1 nM |  | 
